# In US6737383B1, “Herbicidal oxadiazolidines” (priority 1999, dated 2004):
# What was measured:
# bedstraw = assay: Test B pre/postemergence bedstraw; type: in vivo, Galium aparine
# How it was run: (§1)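 Herbicidal effect was estimated by eye on a ten-point control scale after plants spent twelve to sixteen days in a greenhouse following soil or foliar treatment. Foliar sprays targeted plants at one to four leaves; all doses were formulated in a non-phytotoxic solvent with surfactant.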
# blackgrass = assay: Test B pre/postemergence blackgrass; type: in vivo, Alopecurus myosuroides
# How it was run: as §1
# surinam grass = assay: Test B pre/postemergence surinam grass; type: in vivo, Brachiaria decumbens
# How it was run: as §1
# cocklebur = assay: Test B pre/postemergence cocklebur; type: in vivo, Xanthium strumarium
# How it was run: as §1
# corn = assay: Test B pre/postemergence corn; type: in vivo, Zea mays
# How it was run: as §1
# crabgrass = assay: Test B pre/postemergence crabgrass; type: in vivo, Digitaria sanguinalis
# How it was run: as §1
# rape = assay: Test B pre/postemergence rape; type: in vivo, Brassica napus
# How it was run: as §1
# soybean = assay: Test B pre/postemergence soybean; type: in vivo, Glycine max
# How it was run: as §1
# sugar beet = assay: Test B pre/postemergence sugar beet; type: in vivo, Beta vulgaris; settings: for Plant response rating, Sugarbeets: Rate 250 g/ha
# How it was run: as §1
# velvetleaf = assay: Test B pre/postemergence velvetleaf; type: in vivo, Abutilon theophrasti; settings: for Plant response rating, Velvetleaf: Rate 250 g/ha
# How it was run: as §1
# wheat = assay: Test B pre/postemergence wheat; type: in vivo, Triticum aestivum; settings: for Plant response rating, Wheat: Rate 250 g/ha
# How it was run: as §1
# wild oat = assay: Test B pre/postemergence wild oat; type: in vivo, Avena fatua; settings: for Plant response rating, Wild oats: Rate 250 g/ha
# How it was run: as §1
# purple nutsedge = assay: Test B pre/postemergence purple nutsedge; type: in vivo, Cyperus rotundus
# How it was run: as §1
# rice = assay: Test B flood test rice; type: in vivo, Oryza sativa
# How it was run: (§2)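 Each value is a visual injury score relative to controls, with 10 meaning complete control and 0 no effect. Evaluation took place twelve to sixteen days after the 2-leaf-stage plants were treated and kept in the greenhouse.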
# smallflower flatsedge = assay: Test B flood test smallflower flatsedge; type: in vivo, Cyperus difformis
# How it was run: as §2
# duck salad = assay: Test B flood test duck salad; type: in vivo, Heteranthera limosa
# How it was run: as §2
# bamyardgrass = assay: Test B flood test barnyardgrass; type: in vivo, Echinochloa crus-galli
# How it was run: as §2
# [1] = Postemergence, Rate 62 g/ha, scale 0 to 10, 0 is no effect, 10 is complete control
# [2] = Postemergence, Rate 250 g/ha, scale 0 to 10, 0 no effect, 10 complete control
# [3] = Preemergence, Rate 62 g/ha, scale 0 to 10 (0 no effect, 10 complete control)
# [4] = Preemergence, Rate 125 g/ha, scale 0 to 10 (0 no effect, 10 complete control)
# [5] = Preemergence, Rate 250 g/ha, scale of 0 to 10 where 0 is no effect and 10 is complete control
# [6] = Preemergence, Rate 500 g/ha, scale 0 to 10 (0 no effect, 10 complete control)
# [7] = Rate 125 g/ha, Postemergence, scale 0 to 10, 0 no effect, 10 complete control
# [8] = Rate 500 g/ha, Postemergence, scale 0 to 10, 0 no effect, 10 complete control
# [9] = Postemergence, Rate 125 g/ha, scale of 0 to 10 where 0 is no effect and 10 is complete control
# [10] = Rate 62 g/ha, Postemergence, scale of 0 to 10 where 0 is no effect and 10 is complete control
# [11] = Preemergence, Rate 125 g/ha, 0 is no effect, 10 is complete control
# [12] = Preemergence, scale of 0 to 10 where 0 is no effect and 10 is complete control
# [13] = Postemergence, scale 0 to 10, 0 is no effect, 10 is complete control
# [14] = Postemergence (flood test species), Rate 125 g/ha, scale of 0 to 10 where 0 is no effect and 10 is complete control
# [15] = Rate 62 g/ha, Postemergence section, flood test species, scale of 0 to 10 where 0 is no effect and 10 is complete control
# [16] = Rate 250 g/ha, Postemergence (flood test), scale 0 to 10, 0 is no effect, 10 is complete control
# [17] = Rate 250 g/ha, headed Pre-emergence (flood test species), scale 0 to 10 (0 no effect, 10 complete control)
# [18] = Rate 500 g/ha, headed Pre-emergence (flood test species), scale 0 to 10 (0 no effect, 10 complete control)
# [19] = Rate 500 g/ha, listed under Postemergence (flood test species), scale 0 to 10, 0 no effect, 10 complete control
# [20] = Rate 1000 g/ha, Pre-emergence (as headed), scale 0 to 10
# [21] = Rate 2000 g/ha, Pre-emergence (as headed), scale 0 to 10
# [22] = flood test, listed under Postemergence, Rate 250 g/ha, scale 0 to 10, 0 no effect, 10 complete control
compound,measurement,setting,value
CCn1c(=O)on(C(=O)N(c2ccc(Cl)cc2)C(C)C)c1=O [Compound 108],Bedstraw plant response rating,bedstraw; [1],0
same,Bedstraw plant response rating,bedstraw; [2],2
same,Bedstraw plant response rating,bedstraw; [3],0
same,"Plant response rating, Bedstraw",bedstraw; [4],5
same,"Plant response rating, Bedstraw",bedstraw; [5],8
same,Bedstraw plant response rating,bedstraw; [6],8
same,Bedstraw plant response rating,bedstraw; [7],0
same,Bedstraw plant response rating,bedstraw; [8],6
same,Blackgrass plant response rating,blackgrass; [9],7
same,Blackgrass plant response rating,blackgrass; [2],7
same,Blackgrass plant response rating,blackgrass; [3],5
same,"Plant response rating, Blackgrass",blackgrass; [4],7
same,"Plant response rating, Blackgrass",blackgrass; [5],9
same,Blackgrass plant response rating,blackgrass; [6],10
same,Blackgrass plant response rating,blackgrass; [10],4
same,Blackgrass plant response rating,blackgrass; [8],8
same,B. signalgrass plant response rating,surinam grass; [1],0
same,B. signalgrass plant response rating,surinam grass; [2],3
same,B. signalgrass plant response rating,surinam grass; [3],4
same,"Plant response rating, B. signalgrass",surinam grass; [4],6
same,"Plant response rating, B. signalgrass",surinam grass; [5],7
same,B. signalgrass plant response rating,surinam grass; [6],9
same,B. signalgrass plant response rating,surinam grass; [7],3
same,B. signalgrass plant response rating,"surinam grass; Rate 500 g/ha, Postemergence, scale of 0 to 10 where 0 is no effect and 10 is complete control",6
same,Cocklebur plant response rating,cocklebur; [9],0
same,Cocklebur plant response rating,cocklebur; [2],0
same,"Plant response rating, Cocklebur",cocklebur; [4],0
same,"Plant response rating, Cocklebur",cocklebur; [5],0
same,Cocklebur plant response rating,cocklebur; [6],0
same,Cocklebur plant response rating,cocklebur; [10],0
same,Cocklebur plant response rating,cocklebur; [8],2
same,Corn plant response rating,corn; [9],0
same,Corn plant response rating,corn; [2],0
same,Corn plant response rating,corn; [3],0
same,"Plant response rating, Corn",corn; [4],0
same,"Plant response rating, Corn",corn; [5],6
same,Corn plant response rating,corn; [6],9
same,Corn plant response rating,corn; [10],0
same,Corn plant response rating,corn; [8],0
same,Crabgrass plant response rating,crabgrass; [9],8
same,Crabgrass plant response rating,crabgrass; [2],8
same,Crabgrass plant response rating,crabgrass; [3],7
same,"Plant response rating, Crabgrass",crabgrass; [4],9
same,"Plant response rating, Crabgrass",crabgrass; [5],9
same,Crabgrass plant response rating,crabgrass; [6],10
same,Crabgrass plant response rating,crabgrass; [10],4
same,Crabgrass plant response rating,crabgrass; [8],9
same,Rape plant response rating,rape; [9],0
same,Rape plant response rating,rape; [2],0
same,Rape plant response rating,rape; [3],0
same,"Plant response rating, Rape",rape; [4],0
same,"Plant response rating, Rape",rape; [5],7
same,Rape plant response rating,rape; [6],9
same,Rape plant response rating,rape; [10],0
same,Rape plant response rating,rape; [8],2
same,Soybean plant response rating,soybean; [9],3
same,Soybean plant response rating,soybean; [3],0
same,"Plant response rating, Soybean",soybean; [4],0
same,"Plant response rating, Soybean",soybean; [5],0
same,Soybean plant response rating,soybean; [6],2
same,Soybean plant response rating,soybean; [10],1
same,"Plant response rating, Soybean","soybean; Rate 250 g/ha, Postemergence, scale 0 to 10, 0 is no effect, 10 is complete control",5
same,Soybean plant response rating,soybean; [8],5
same,Sugarbeets plant response rating,sugar beet; [9],0
same,Sugarbeets plant response rating,sugar beet; [3],3
same,Sugarbeets plant response rating (0 to 10 scale),sugar beet; [11],3
same,"Plant response rating, Sugarbeets",sugar beet; [12],4
same,Sugarbeets plant response rating,sugar beet; [6],8
same,Sugarbeets plant response rating,sugar beet; [10],0
same,"Plant response rating, Sugarbeets",sugar beet; [13],2
same,Sugarbeets plant response rating,sugar beet; [8],2
same,Velvetleaf plant response rating,velvetleaf; [9],4
same,Velvetleaf plant response rating,velvetleaf; [3],3
same,Velvetleaf plant response rating (0 to 10 scale),velvetleaf; [11],4
same,"Plant response rating, Velvetleaf",velvetleaf; [12],4
same,Velvetleaf plant response rating,velvetleaf; [6],5
same,Velvetleaf plant response rating,velvetleaf; [10],2
same,"Plant response rating, Velvetleaf",velvetleaf; [13],4
same,Velvetleaf plant response rating,velvetleaf; [8],5
same,Wheat plant response rating,wheat; [9],0
same,Wheat plant response rating,wheat; [3],0
same,Wheat plant response rating (0 to 10 scale),wheat; [11],0
same,"Plant response rating, Wheat",wheat; [12],2
same,Wheat plant response rating,wheat; [6],3
same,Wheat plant response rating,wheat; [10],0
same,"Plant response rating, Wheat",wheat; [13],0
same,Wheat plant response rating,wheat; [8],2
same,Wild oats plant response rating,wild oat; [9],0
same,Wild oats plant response rating,wild oat; [3],9
same,Wild oats plant response rating (0 to 10 scale),wild oat; [11],9
same,"Plant response rating, Wild oats",wild oat; [12],9
same,Wild oats plant response rating,wild oat; [6],9
same,Wild oats plant response rating,wild oat; [10],0
same,"Plant response rating, Wild oats",wild oat; [13],3
same,Wild oats plant response rating,wild oat; [8],3
same,Nutsedge plant response rating,purple nutsedge; [9],3
same,Nutsedge plant response rating,purple nutsedge; [2],4
same,Nutsedge plant response rating,purple nutsedge; [3],0
same,"Plant response rating, Nutsedge",purple nutsedge; [4],0
same,"Plant response rating, Nutsedge",purple nutsedge; [5],0
same,Nutsedge plant response rating,purple nutsedge; [6],0
same,Nutsedge plant response rating,purple nutsedge; [10],0
same,Nutsedge plant response rating,purple nutsedge; [8],4
same,Rice plant response rating,rice; [14],0
same,Rice plant response rating,rice; [15],0
same,"Plant response rating, Rice",rice; [16],0
same,Rice plant response rating,rice; [17],0
same,"Plant response rating, Rice",rice; [18],0
same,Rice plant response rating,rice; [19],0
same,Rice plant response rating,rice; [20],0
same,Rice plant response rating,rice; [21],0
same,S. Flatsedge plant response rating,smallflower flatsedge; [14],0
same,S. Flatsedge plant response rating,"smallflower flatsedge; Pre-emergence, Rate 1000 g/ha, scale 0 to 10 (0 no effect, 10 complete control)",0
same,S. Flatsedge plant response rating,smallflower flatsedge; [15],0
same,"Plant response rating, S. Flatsedge",smallflower flatsedge; [16],0
same,S. Flatsedge plant response rating,smallflower flatsedge; [17],0
same,"Plant response rating, S. Flatsedge",smallflower flatsedge; [18],0
same,S. Flatsedge plant response rating,smallflower flatsedge; [19],0
same,S. Flatsedge plant response rating,smallflower flatsedge; [21],0
same,Ducksalad plant response rating,duck salad; [14],0
same,Ducksalad plant response rating,duck salad; [15],0
same,Ducksalad plant response rating,duck salad; [17],0
same,"Plant response rating, Ducksalad",duck salad; [18],0
same,Ducksalad plant response rating,duck salad; [19],0
same,Ducksalad plant response rating,duck salad; [20],0
same,Ducksalad plant response rating,duck salad; [21],0
same,Ducksalad plant response rating,duck salad; [22],0
same,Barnyardgrass plant response rating,bamyardgrass; [1],0
same,Barnyardgrass plant response rating,"bamyardgrass; Rate 125 g/ha, Postemergence section (flood test species), scale 0 to 10, 0 no effect, 10 complete control",0
same,Barnyardgrass plant response rating,bamyardgrass; [17],0
same,"Plant response rating, Barnyardgrass",bamyardgrass; [18],0
same,Barnyardgrass plant response rating,bamyardgrass; [19],0
same,Barnyardgrass plant response rating,bamyardgrass; [20],0
same,Barnyardgrass plant response rating,"bamyardgrass; Rate 2000 g/ha, Pre-emergence (as headed), scale 0 to 10, 0 no effect, 10 complete control",0
same,Barnyardgrass plant response rating,bamyardgrass; [22],0
